Laboratory results taken from patent US20240208992A1, “MACROCYCLES AS CFTR MODULATORS” (Idorsia Pharmaceuticals Ltd, priority 2021, published 2024).
pEC50: −log10 of the molar value.

Molecular target: human F508del-CFTR (Homo sapiens, UniProt P13569, DEL508-508)
Experiment: F508del-CFTR cell surface expression (corrector activity), DiscoveRx ß-galactosidase complementation chemiluminescence assay in recombinant U2OS cell line;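 further: U2OS cells co-expressing ProLink-tagged F508del-CFTR and a membrane-anchored enzyme acceptor, where more surface CFTR restores β-galactosidase activity measured by chemiluminescence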
Details: for pEC50: EC50, F508del-CFTR cell surface expression; for Emax: U2OS
[1] = U2OS cell line, 16h compound incubation, geomean values
[2] = in relation to the Emax of the corrector lumacaftor (=100%), U2OS cell line, 16h compound incubation, arithmetic mean values
[3] = U2OS cells, 16h compound incubation, geomean of several measurements
[4] = in relation to the Emax of the corrector lumacaftor (=100%), U2OS cells, 16h compound incubation, arithmetic mean
[5] = U2OS cells, 16h compound incubation, geomean values
[6] = in relation to Emax of corrector lumacaftor (=100%), arithmetic mean values

human F508del-CFTR, sequence (P13569 with tags, fused parts or gaps DEL508-508): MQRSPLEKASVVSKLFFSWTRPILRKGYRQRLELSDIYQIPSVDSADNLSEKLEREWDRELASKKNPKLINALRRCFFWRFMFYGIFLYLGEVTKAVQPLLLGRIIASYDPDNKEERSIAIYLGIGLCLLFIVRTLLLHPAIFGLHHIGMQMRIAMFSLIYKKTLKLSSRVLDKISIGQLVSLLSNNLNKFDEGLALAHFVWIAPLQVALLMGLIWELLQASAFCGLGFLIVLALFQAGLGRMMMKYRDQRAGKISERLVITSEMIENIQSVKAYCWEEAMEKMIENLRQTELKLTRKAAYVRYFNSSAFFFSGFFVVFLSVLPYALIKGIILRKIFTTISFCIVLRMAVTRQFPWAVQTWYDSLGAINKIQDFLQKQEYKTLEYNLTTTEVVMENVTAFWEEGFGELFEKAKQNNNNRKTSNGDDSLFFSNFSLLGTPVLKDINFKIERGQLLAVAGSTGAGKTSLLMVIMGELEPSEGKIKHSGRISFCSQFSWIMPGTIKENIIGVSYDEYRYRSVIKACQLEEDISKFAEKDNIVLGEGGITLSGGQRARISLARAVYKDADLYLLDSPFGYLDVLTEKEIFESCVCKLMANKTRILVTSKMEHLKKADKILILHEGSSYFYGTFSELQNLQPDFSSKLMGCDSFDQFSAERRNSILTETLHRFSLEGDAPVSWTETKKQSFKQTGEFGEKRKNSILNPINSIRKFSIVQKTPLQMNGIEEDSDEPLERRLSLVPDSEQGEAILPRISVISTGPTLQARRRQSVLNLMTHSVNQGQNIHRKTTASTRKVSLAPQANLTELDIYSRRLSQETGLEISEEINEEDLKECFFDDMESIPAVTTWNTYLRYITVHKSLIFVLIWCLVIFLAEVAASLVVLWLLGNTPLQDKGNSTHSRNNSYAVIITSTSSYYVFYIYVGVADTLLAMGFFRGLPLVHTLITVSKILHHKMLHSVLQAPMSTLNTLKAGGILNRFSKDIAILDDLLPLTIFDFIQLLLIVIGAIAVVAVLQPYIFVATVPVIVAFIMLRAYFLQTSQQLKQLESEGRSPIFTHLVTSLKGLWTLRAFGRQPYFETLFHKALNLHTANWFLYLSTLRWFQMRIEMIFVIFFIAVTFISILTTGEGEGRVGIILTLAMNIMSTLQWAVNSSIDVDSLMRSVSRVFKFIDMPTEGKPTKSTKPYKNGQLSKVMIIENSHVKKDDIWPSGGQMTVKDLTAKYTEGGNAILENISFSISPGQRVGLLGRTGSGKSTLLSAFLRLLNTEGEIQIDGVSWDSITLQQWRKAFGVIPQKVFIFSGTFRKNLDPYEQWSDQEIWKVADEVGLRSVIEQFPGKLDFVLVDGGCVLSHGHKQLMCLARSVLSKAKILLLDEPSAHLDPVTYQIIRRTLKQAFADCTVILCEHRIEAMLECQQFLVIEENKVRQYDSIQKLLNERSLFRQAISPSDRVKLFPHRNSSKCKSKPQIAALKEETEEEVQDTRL

Row | SMILES | pEC50 [1] | Emax [2] [%] | pEC50 [5] | Emax [6] [%] | further results
1 | CC(C)C[C@H]1C(=O)N(C)CC(=O)N[C@H](Cc2ccccc2)COc2cc3c(cc2C(=O)N[C@H](C(=O)NCCc2ccc4c(c2)OCCO4)CC(=O)N1C)OCO3 [Example 226, (7R,13S,17S)-7-benzyl-N-(2-(2,3-dihydrobenzo[b][1,4]dioxin-6-yl)ethyl)-13-isobutyl-11,14-dimethyl-9,12,15,19-tetraoxo-6,7,8,9,10,11,12,13,14,15,16,17,18,19-tetradecahydro-[1,3]dioxolo[4′,5′:4,5]benzo[1,2-p][1]oxa[4,7,10,14]tetraazacycloheptadecine-17-carboxamide] | 6.28 | 213 | – | – | –
2 | COc1nc(C)cc2c1C(=O)N[C@H](C(=O)NCCc1nc(C3CC3)no1)CC(=O)N(C)[C@@H](CC(C)C)C(=O)N(C)[C@H](Cc1nc(C(F)(F)F)no1)C(=O)N[C@H](Cc1ccccc1)CO2 [Example 849, (3R,6R,9S,13S)-3-benzyl-N-(2-(3-cyclopropyl-1,2,4-oxadiazol-5-yl)ethyl)-9-isobutyl-16-methoxy-7,10,18-trimethyl-5,8,11,15-tetraoxo-6-((3-(trifluoromethyl)-1,2,4-oxadiazol-5-yl)methyl)-2,3,4,5,6,7,8,9,10,11,12,13,14,15-tetradecahydropyrido[3,4-p][1]oxa[4,7,10,14]tetraazacycloheptadecine-13-carboxamide] | – | – | – | – | pEC50 [3]: 7.34; Emax [4]: 465%
3 | COc1noc(CCNC(=O)[C@@H]2CC(=O)N(C)[C@@H](CC(C)C)C(=O)N(C)[C@H](CC(F)(F)F)C(=O)N[C@H](Cc3ccccc3)COc3cc(C)c4ncccc4c3C(=O)N2)n1 [Example 975, (3S,7S,10R,13R)-13-benzyl-7-isobutyl-N-(2-(3-methoxy-1,2,4-oxadiazol-5-yl)ethyl)-6,9,17-trimethyl-1,5,8,11-tetraoxo-10-(2,2,2-trifluoroethyl)-1,2,3,4,5,6,7,8,9,10,11,12,13,14-tetradecahydro-[1]oxa[4,7,10,14]tetraazacycloheptadecino[16,17-f]quinoline-3-carboxamide] | – | – | – | – | pEC50 [3]: 6.92; Emax [4]: 497%
4 | CC(C)C[C@H]1C(=O)N2CCOC[C@@H]2C(=O)N[C@H](Cc2ccccc2)COc2ccc3ccccc3c2C(=O)N[C@H](C(=O)NCCc2cc3c(cc2Cl)OCCO3)CC(=O)N1C [Example 37, (4aR,7R,18S,22S)-7-benzyl-N-(2-(7-chloro-2,3-dihydrobenzo[b][1,4]dioxin-6-yl)ethyl)-22-isobutyl-21-methyl-5,16,20,23-tetraoxo-1,2,4,4a,5,6,7,8,16,17,18,19,20,21,22,23-hexadecahydronaphtho[1,2-p][1,4]oxazino[3,4-f][1]oxa[4,7,10,14]tetraazacycloheptadecine-18-carboxamide] | 6.91 | 205 | – | – | –
5 | CCN1CCN2C(=O)[C@H](CC(C)C)N(C)C(=O)C[C@@H](C(=O)NCCc3cccc(OC)c3)NC(=O)c3c(OC)cccc3OC[C@@H](Cc3ccccc3)NC(=O)[C@H]2C1 [Example 605, (7S,11S,20R,22aR)-20-benzyl-2-ethyl-7-isobutyl-14-methoxy-N-(3-methoxyphenethyl)-8-methyl-6,9,13,22-tetraoxo-1,3,4,6,7,8,9,10,11,12,13,19,20,21,22,22a-hexadecahydro-2H-benzo[p]pyrazino[2,1-f][1]oxa[4,7,10,14]tetraazacycloheptadecine-11-carboxamide] | – | – | 6.20 | 257 | –
6 | CC(C)C[C@H]1C(=O)N2CCCC[C@H]2C(=O)N[C@H](Cc2ccccc2)COc2ccc3ncc(F)cc3c2C(=O)N[C@H](C(=O)NCCc2cc(C3CC3)no2)CC(=O)N1C [Example 777, (9S,13S,19aS,22R)-22-benzyl-N-(2-(3-cyclopropylisoxazol-5-yl)ethyl)-5-fluoro-13-isobutyl-12-methyl-7,11,14,20-tetraoxo-7,8,9,10,11,12,13,14,17,18,19,19a,20,21,22,23-hexadecahydro-16H-pyrido[2′,1′:6,7][1]oxa[4,7,10,14]tetraazacycloheptadecino[16,17-f]quinoline-9-carboxamide] | – | – | 6.06 | 216 | –
7 | CN1C(=O)C[C@@H](C(=O)NCCc2ccc3c(c2)OCO3)NC(=O)c2c(ccc3ccccc23)OC[C@@H](Cc2ccccc2)NC(=O)CN(CCC2CCCCC2)C(=O)[C@@H]1CC1CCCC1 (racemic) [Example 290, (3RS,7S,13R)-N-(2-(benzo[d][1,3]dioxol-5-yl)ethyl)-13-benzyl-9-(2-cyclohexylethyl)-7-(cyclopentylmethyl)-6-methyl-1,5,8,11-tetraoxo-1,2,3,4,5,6,7,8,9,10,11,12,13,14-tetradecahydronaphtho[1,2-p][1]oxa[4,7,10,14]tetraazacycloheptadecine-3-carboxamide] | – | 260 | – | – | –
8 | Cc1cc(CCNC(=O)[C@@H]2CC(=O)N(C)[C@@H](CC(C)C)C(=O)N(CCC3CCCCC3)CC(=O)N[C@H](Cc3ccccc3)COc3cnc4c(F)cccc4c3C(=O)N2)on1 [Example 411, (3S,7S,13R)-13-benzyl-9-(2-cyclohexylethyl)-18-fluoro-7-isobutyl-6-methyl-N-(2-(3-methylisoxazol-5-yl)ethyl)-1,5,8,11-tetraoxo-1,2,3,4,5,6,7,8,9,10,11,12,13,14-tetradecahydro-[1]oxa[4,7,10,14]tetraazacycloheptadecino[17,16-c]quinoline-3-carboxamide] | – | – | 6.86 | 250 | –
9 | COc1cccc2c1C(=O)N[C@H](C(=O)NCCc1ccc3c(c1)OCC3)CC(=O)N(C)[C@@H](CC(C)C)C(=O)N(CCC1CCCCC1)CC(=O)N[C@H](Cc1ccccc1)CO2 (racemic) [Example 15, (3R,9S,13RS)-3-benzyl-7-(2-cyclohexylethyl)-N-(2-(2,3-dihydrobenzofuran-6-yl)ethyl)-9-isobutyl-16-methoxy-10-methyl-5,8,11,15-tetraoxo-2,3,4,5,6,7,8,9,10,11,12,13,14,15-tetradecahydrobenzo[p][1]oxa[4,7,10,14]tetraazacycloheptadecine-13-carboxamide] | – | 240 | – | – | –
10 | CC(C)C[C@H]1C(=O)N2CCOC[C@@H]2C(=O)N[C@H](Cc2ccccc2)COc2cnc3ccccc3c2C(=O)N[C@H](C(=O)NCCc2cccc(Br)c2)CC(=O)N1C [Example 52, (9S,13S,19aR,22R)-22-benzyl-N-(3-bromophenethyl)-13-isobutyl-12-methyl-7,11,14,20-tetraoxo-7,8,9,10,11,12,13,14,16,17,19,19a,20,21,22,23-hexadecahydro-[1,4]oxazino[3′,4′:6,7][1]oxa[4,7,10,14]tetraazacycloheptadecino[17,16-c]quinoline-9-carboxamide] | 6.46 | 176 | – | – | –
11 | CC(C)C[C@H]1C(=O)N(CCC2CCCCC2)CC(=O)N[C@H](Cc2ccccc2)COc2ccncc2C(=O)N[C@H](C(=O)NCCc2ccc3c(c2)OCC3)CC(=O)N1C [Example 262, (3R,9S,13S)-3-benzyl-7-(2-cyclohexylethyl)-N-(2-(2,3-dihydrobenzofuran-6-yl)ethyl)-9-isobutyl-10-methyl-5,8,11,15-tetraoxo-2,3,4,5,6,7,8,9,10,11,12,13,14,15-tetradecahydropyrido[3,4-p][1]oxa[4,7,10,14]tetraazacycloheptadecine-13-carboxamide] | 6.47 | 231 | – | – | –
12 | [2H]C([2H])([2H])Oc1nc(C)cc2c1C(=O)N[C@H](C(=O)NCCc1cnn(C3CC3)n1)CC(=O)N(C)[C@@H](CC(C)C)C(=O)N1CCCC[C@@H]1C(=O)N[C@H](Cc1ccccc1)CO2 [Example 685, (7S,11S,17aR,20R)-20-benzyl-N-(2-(2-cyclopropyl-2H-1,2,3-triazol-4-yl)ethyl)-11-isobutyl-4-(methoxy-d3)-] | – | – | 6.30 | 234 | –
13 | CC(C)C[C@H]1C(=O)N2CCCC[C@@H]2C(=O)N[C@H](Cc2ccccc2)COc2cnc3ccc(F)cc3c2C(=O)N[C@H](C(=O)NCCc2cc(C3CC3)on2)CC(=O)N1C [Example 639, (9S,13S,19aR,22R)-22-benzyl-N-(2-(5-cyclopropylisoxazol-3-yl)ethyl)-5-fluoro-13-isobutyl-12-methyl-7,11,14,20-tetraoxo-7,8,9,10,11,12,13,14,17,18,19,19a,20,21,22,23-hexadecahydro-16H-pyrido[2′,1′:6,7][1]oxa[4,7,10,14]tetraazacycloheptadecino[17,16-c]quinoline-9-carboxamide] | – | – | 6.76 | 305 | –
14 | CC(C)C[C@H]1C(=O)N(CCC2CCCO2)CC(=O)N[C@H](Cc2ccccc2)COc2ccc3ccccc3c2C(=O)N[C@H](C(=O)NCCc2ccc3c(c2)OCO3)CC(=O)N1C (stereo partly drawn) [Example 332, (3S,7S,13R)-N-(2-(benzo[d][1,3]dioxol-5-yl)ethyl)-13-benzyl-7-isobutyl-6-methyl-1,5,8,11-tetraoxo-9-(2-(tetrahydrofuran-2-yl)ethyl)-1,2,3,4,5,6,7,8,9,10,11,12,13,14-tetradecahydronaphtho[1,2-p][1]oxa[4,7,10,14]tetraazacycloheptadecine-3-carboxamide] | 6.51 | 183 | – | – | –
15 | CC(C)C[C@H]1C(=O)N2CC[C@@H](c3ccccc3)C[C@@H]2C(=O)N[C@H](Cc2ccccc2)COc2cnc3ccccc3c2C(=O)N[C@H](C(=O)NCCc2cc(C3CC3)no2)CC(=O)N1C [Example 676, (9S,13S,19aR,22R)-22-benzyl-N-(2-(3-cyclopropylisoxazol-5-yl)ethyl)-13-isobutyl-12-methyl-7,11,14,20-tetraoxo-18-phenyl-7,8,9,10,11,12,13,14,17,18,19,19a,20,21,22,23-hexadecahydro-16H-pyrido[2′,11:6,7][1]oxa[4,7,10,14]tetraazacycloheptadecino[17,16-c]quinoline-9-carboxamide] | – | – | 7.21 | 267 | –
